The source of these data is patent US9499585B2, “Bioactive peptide complexes” (priority 2012, dated 2016).

No end group written: not given here.

For series [1], the system named is A/Aichi/2/68 (H3N2) flu strain. In kind it is in vivo, white mice.
Series [2] is described as follows: Zn^++ ion binding with A1 peptide by light-scattering method. As to conditions: Zn(NO3)2; light scattering at 400 nm; aggregates dissolve on adding EDTA. Type of series: physicochemical. The text has this: Zn^++ ion binding with alloferon 1 (A1) and its homologs was studied by the method described [Shi Y., Beger R. D., Berg J. M. Metal binding properties of single amino acid deletion mutants of zinc finger peptides: studies using cobalt(II) as a spectroscopic prob. Biophys. J., 1993, Vol. 64, p. 749-753]. Zn^++ ion binding with A1 peptide was studied by the light-scattering method using ISS, Campaign, IL fluorimeter at 400 nm and excitation light 398 nm.
For analysis conditions refer to Shi Y. et al. (1993)
A—(open circles) A1 and Zn(N03)2. interaction Excess molar quantity of Zn^++ ion comparing to peptide was 1:10. Firm line—peptide enrichment with Zn^+ ion. Ground peptide mass changed into aggregates with complete enrichment. EDTA was added to aggregates. Subsequent to addition of EDTA the complex quickly dissociated and peptide (alloferon) changed to soluble phase.

The test system of the next series is Type I interferons. Nature of the series: Type I interferons induction. Particulars: FIG. 6. The source says:
Type I interferons induction was studied by the previously published method [F. I. Yershov., O. I. Kiselev. Interferons and their inducers (from the molecule to the drug) M.: Publ. House. Geotar—Media, 2005-P. 356, Chernysh et al. 2002].

For the compound `CC(N)C12CC3CC(CC(C3)C1)C2` (stereo not shown) [Remantadin], the protective effect in series [1] ([…], mice observed 15 days) is given as 80-87%.

“HGVSGHGQHGVHG [Alloferon A1, nonmodified base peptide]”: in series [2], the “diameter of polydisperse nanoparticles formed on peptide aggregation with Zn^++” value is 50-60 nm. Also, the interferon induction activity result in the series with Type I interferons is given as “quite high level of interferon induction ability”. The “protective effect (in words)” value in series [1] (mouse, in vivo) is recorded as “comparable to efficiency of the protective effect of reference drug Remantadin”.
